The target of the experiment is T1, full-length SARM1 (FL-SARM1) (Homo sapiens, UniProt Q6SZW1).
T1 sequence (Q6SZW1 28-724): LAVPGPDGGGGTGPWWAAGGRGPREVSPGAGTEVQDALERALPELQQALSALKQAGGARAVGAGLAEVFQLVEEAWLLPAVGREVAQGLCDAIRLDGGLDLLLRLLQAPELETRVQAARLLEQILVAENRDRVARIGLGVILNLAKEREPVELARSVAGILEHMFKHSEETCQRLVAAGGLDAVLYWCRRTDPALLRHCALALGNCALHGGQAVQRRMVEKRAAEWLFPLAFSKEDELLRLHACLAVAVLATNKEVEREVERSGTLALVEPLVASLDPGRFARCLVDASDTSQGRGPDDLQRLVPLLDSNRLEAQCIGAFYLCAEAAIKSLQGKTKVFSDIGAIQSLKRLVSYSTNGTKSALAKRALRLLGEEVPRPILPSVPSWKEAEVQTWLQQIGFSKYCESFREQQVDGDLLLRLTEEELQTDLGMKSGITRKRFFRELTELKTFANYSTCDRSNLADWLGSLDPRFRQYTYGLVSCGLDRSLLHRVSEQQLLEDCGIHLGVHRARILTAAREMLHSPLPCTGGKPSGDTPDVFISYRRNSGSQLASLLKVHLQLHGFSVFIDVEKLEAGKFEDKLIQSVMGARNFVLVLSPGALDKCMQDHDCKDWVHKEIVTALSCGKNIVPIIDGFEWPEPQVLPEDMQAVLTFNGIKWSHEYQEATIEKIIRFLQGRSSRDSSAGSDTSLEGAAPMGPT
In words: FL-SARM1 cellular lysate assay (NAD/NADH-Glo readout of remaining NAD+). The settings on record: SARM1 cellular lysate from transfected HEK293T cells, NAD+ and NMN, 11 point curve.

The results in this text go back to patent publication US20250361234A1 (NICO THERAPEUTICS, INC., priority 2022, published 2025).

Molecules are shown by their SMILES.

For `Cc1ccc(NC(=O)N2C[C@@H](C)CC[C@H]2C)cc1-c1cncc(F)c1` (racemic) [Example 8, cis-N-(3-(5-fluoropyridin-3-yl)-4-methylphenyl)-2,5-dimethylpiperidine-1-carboxamide], the IC50 – broadly, the concentration that gives 50% inhibition – (Activity (μM)) stood at 2.6 µM and the IC50 (Activity) was 1 to 10 µM.
For the molecule `Cc1ccc(NC(=O)N2C[C@@H]3C[C@H]2C[C@H]3OC(F)F)cc1-c1cncc(F)c1` (racemic) [Example 31, cis-5-(difluoromethoxy)-N-(3-(5-fluoropyridin-3-yl)-4-methylphenyl)-2-azabicyclo[2.2.1]heptane-2-carboxamide], half-maximal inhibition (Activity (μM)) (IC50) required 28.6 µM and the IC50 (Activity) is over 10 µM.
Take `Cc1ccc(NC(=O)N2CCCCC2C)cc1-c1cncc(F)c1` (racemic) [Example 32, N-(3-(5-fluoropyridin-3-yl)-4-methylphenyl)-2-methylpiperidine-1-carboxamide]: the concentration for half-maximal inhibition (IC50) was 1.9 µM (Activity (μM)) and 1 to 10 µM (Activity).
Consider `Cc1ccc(NC(=O)C2CCCN2C2CCC2)cc1-c1cncc(F)c1` (racemic) [Example 103, 1-cyclobutyl-N-[3-(5-fluoropyridin-3-yl)-4-methylphenyl]pyrrolidine-2-carboxamide], for which the half-maximal inhibitory concentration (IC50) was 17.7 µM (Activity (μM)) and over 10 µM (Activity).
Consider `Cc1ccc(NC(=O)C2CCCN2c2ncccn2)cc1-c1cncc(F)c1` (racemic) [Example 104, N-[3-(5-fluoropyridin-3-yl)-4-methylphenyl]-1-pyrimidin-2-ylpyrrolidine-2-carboxamide], for which the IC50 was 26.4 µM (Activity (μM)) and over 10 µM (Activity).
In the case of `Cc1ccc(NC(=O)C2CCCN2C(=O)OC(C)(C)C)cc1-c1cncc(F)c1` (racemic) [Example 105, tert-butyl 2-[[3-(5-fluoropyridin-3-yl)-4-methylphenyl]carbamoyl]pyrrolidine-1-carboxylate], the 50% inhibitory concentration (IC50) reads like this: (Activity (μM)) 13.5 µM; (Activity) over 10 µM.
Turning to `Cc1ccc(NC(=O)N2CC[C@@H](C)C[C@H]2C)cc1-c1cncc(F)c1` (racemic) [Example 119, cis-N-(3-(5-fluoropyridin-3-yl)-4-methylphenyl)-2,4-dimethylpiperidine-1-carboxamide], the half-maximal inhibitory concentration (IC50) is 1.1 µM (Activity (μM)) and 1 to 10 µM (Activity).
In the case of `Cc1ccc(NC(=O)N2C[C@@H]3C[C@H]2C[C@@H]3C#N)cc1-c1cncc(F)c1` (relative stereo) [Example 24, trans-5-cyano-N-(3-(5-fluoropyridin-3-yl)-4-methylphenyl)-2-azabicyclo[2.2.1]heptane-2-carboxamide], the IC50 runs as follows: (Activity (μM)) 3.3 µM; (Activity) 1 to 10 µM.
As to `COC(=O)[C@H]1C[C@@H]2C[C@H](C1)N2C(=O)Nc1ccc(C)c(-c2cncc(F)c2)c1` (single isomer, unassigned) [Example 12, trans-methyl 6-((3-(5-fluoropyridin-3-yl)-4-methylphenyl)carbamoyl)-6-azabicyclo[3.1.1]heptane-3-carboxylate], the 50% inhibitory concentration (IC50) is, setting by setting: (Activity (μM)) 3.7 µM; (Activity) 1 to 10 µM.
Consider `COC(=O)[C@H]1CC2C[C@@H](C1)N2C(=O)Nc1ccc(C)c(-c2cncc(F)c2)c1` (single isomer, unassigned) [Example 13, cis-methyl 6-((3-(5-fluoropyridin-3-yl)-4-methylphenyl)carbamoyl)-6-azabicyclo[3.1.1]heptane-3-carboxylate], for which the half-maximal inhibitory concentration (IC50) is 3.4 µM (Activity (μM)) and 1 to 10 µM (Activity).
As to `Cc1ccc(NC(=O)N2C3CC2CC(C)(O)C3)cc1-c1cncc(F)c1` (single isomer, unassigned) [Example 46, N-(3-(5-fluoropyridin-3-yl)-4-methylphenyl)-3-hydroxy-3-methyl-6-azabicyclo[3.1.1]heptane-6-carboxamide], the IC50 by setting is: (Activity (μM)) 8.7 µM; (Activity) 1 to 10 µM.
Regarding `C[C@@H]1CC2C[C@@H](C1)N2C(=O)Nc1ccc(C2CC2)c(-c2cncc(F)c2)c1` (single isomer, unassigned) [Example 50, trans-N-(4-cyclopropyl-3-(5-fluoropyridin-3-yl)phenyl)-3-methyl-6-azabicyclo[3.1.1]heptane-6-carboxamide], the 50% inhibitory concentration (IC50) reads like this: (Activity (μM)) 0.2 µM; (Activity) 0.0001 to 1 µM.
As for `C[C@@H]1CC2C[C@H](C1)N2C(=O)Nc1ccc(C2CC2)c(-c2cncc(F)c2)c1` (single isomer, unassigned) [Example 51, cis-N-(4-cyclopropyl-3-(5-fluoropyridin-3-yl)phenyl)-3-methyl-6-azabicyclo[3.1.1]heptane-6-carboxamide], the IC50 is 0.2 µM (Activity (μM)) and 0.0001 to 1 µM (Activity).
For `C[C@@H]1CC2C[C@@H](C1)N2C(=O)Nc1ccc(C(F)(F)F)c(-c2cncc(F)c2)c1` (single isomer, unassigned) [Example 52, trans-N-(3-(5-fluoropyridin-3-yl)-4-(trifluoromethyl)phenyl)-3-methyl-6-azabicyclo[3.1.1]heptane-6-carboxamide] the same measures were 0.08 µM and 0.0001 to 1 µM.
On the same counts, the results for `C[C@@H]1CC2C[C@H](C1)N2C(=O)Nc1ccc(C(F)(F)F)c(-c2cncc(F)c2)c1` (single isomer, unassigned) [Example 53, cis-N-(3-(5-fluoropyridin-3-yl)-4-(trifluoromethyl)phenyl)-3-methyl-6-azabicyclo[3.1.1]heptane-6-carboxamide] are 0.06 µM and 0.0001 to 1 µM.
As to `C[C@@H]1CC2C[C@@H](C1)N2C(=O)Nc1ccc(F)c(-c2cncc(F)c2)c1` (single isomer, unassigned) [Example 57, trans-N-(4-fluoro-3-(5-fluoropyridin-3-yl)phenyl)-3-methyl-6-azabicyclo[3.1.1]heptane-6-carboxamide], the IC50 is 0.3 µM (Activity (μM)) and 0.0001 to 1 µM (Activity).
For `C[C@@H]1CC2C[C@H](C1)N2C(=O)Nc1ccc(F)c(-c2cncc(F)c2)c1` (single isomer, unassigned) [Example 58, cis-N-(4-fluoro-3-(5-fluoropyridin-3-yl)phenyl)-3-methyl-6-azabicyclo[3.1.1]heptane-6-carboxamide] the same measures were 0.3 µM and 0.0001 to 1 µM.
As to `C[C@@H]1CC2C[C@@H](C1)N2C(=O)Nc1ccc(C#N)c(-c2cncc(F)c2)c1` (single isomer, unassigned) [Example 77, trans-N-(4-cyano-3-(5-fluoropyridin-3-yl)phenyl)-3-methyl-6-azabicyclo[3.1.1]heptane-6-carboxamide], the IC50 runs as follows: (Activity (μM)) 0.4 µM; (Activity) 0.0001 to 1 µM.
`C[C@H]1CC2C[C@@H](C1)N2C(=O)Nc1ccc(C#N)c(-c2cncc(F)c2)c1` (single isomer, unassigned) [Example 78, cis-N-(4-cyano-3-(5-fluoropyridin-3-yl)phenyl)-3-methyl-6-azabicyclo[3.1.1]heptane-6-carboxamide] returned an IC50 (Activity (μM)) of 0.1 µM and an IC50 (Activity) of 0.0001 to 1 µM.
`C[C@@H]1CC2C[C@@H](C1)N2C(=O)Nc1ccc(Cl)c(-c2cncc(F)c2)c1` (single isomer, unassigned) [Example 79, trans-N-(4-chloro-3-(5-fluoropyridin-3-yl)phenyl)-3-methyl-6-azabicyclo[3.1.1]heptane-6-carboxamide]: the 50% inhibitory concentration (IC50) runs as follows: (Activity (μM)) 0.1 µM; (Activity) 0.0001 to 1 µM.
In the case of `C[C@H]1CC2C[C@@H](C1)N2C(=O)Nc1ccc(Cl)c(-c2cncc(F)c2)c1` (single isomer, unassigned) [Example 80, cis-N-(4-chloro-3-(5-fluoropyridin-3-yl)phenyl)-3-methyl-6-azabicyclo[3.1.1]heptane-6-carboxamide], the 50% inhibitory concentration (IC50) was 0.07 µM (Activity (μM)) and 0.0001 to 1 µM (Activity).
Molecule `Cc1ccc(NC(=O)N2C3C[C@@H](C)C[C@@H]2C3)cc1-c1cncc(F)c1` (single isomer, unassigned) [Example 83, trans-N-(3-(5-fluoropyridin-3-yl)-4-methylphenyl)-3-methyl-6-azabicyclo[3.1.1]heptane-6-carboxamide] came in with a half-maximal inhibitory concentration (IC50) (Activity (μM)) of 0.01 µM and an IC50 (Activity) of 0.0001 to 1 µM.
For `Cc1nnc([C@]23C[C@H](C)C[C@H](C2)N3C(=O)Nc2ccc(C(F)(F)F)c(-c3cncc(F)c3)c2)o1` (single isomer, unassigned) [Example 120, cis-N-(3-(5-fluoropyridin-3-yl)-4-(trifluoromethyl)phenyl)-3-methyl-1-(5-methyl-1,3,4-oxadiazol-2-yl)-6-azabicyclo[3.1.1]heptane-6-carboxamide] the same measures were over 50 µM and over 10 µM.
In the case of `Cc1nnc([C@]23C[C@H](C)C[C@H](C2)N3C(=O)Nc2ccc(C(F)(F)F)c(-c3cncc(F)c3)c2)o1` (single isomer, unassigned) [Example 121, cis-N-(3-(5-fluoropyridin-3-yl)-4-(trifluoromethyl)phenyl)-3-methyl-1-(5-methyl-1,3,4-oxadiazol-2-yl)-6-azabicyclo[3.1.1]heptane-6-carboxamide], the IC50 was 0.034 µM (Activity (μM)) and 0.0001 to 1 µM (Activity).
